Earlier results on three compounds are cited in paper PMC8043539 (Journal of Enzyme Inhibition and Medicinal Chemistry, 2021).

As a reminder, the Ki is the equilibrium dissociation constant of an inhibitor or competing ligand from its target.

The target in this data set is Sapp1p. As to conditions: inhibition of Sapp1p from C. parapsilosis.

In the case of “isovaleric acid-valine-valine-statine-alanine-statine [Pepstatin A, reference compound]”, the Ki was 0.3 nM.

As to `CC(C)[C@H](NC(=O)OC(C)(C)C)C(=O)N[C@H](C(=O)N[C@@H](Cc1ccccc1)[C@@H](O)CC(=O)N[C@@H](C)C(=O)N[C@@H](Cc1ccccc1)[C@@H](O)CC(N)=O)C(C)C` [KB70, tert-butyl-oxycarbonyl-valine-valine-phenylstatine-alanine-phenylstatine-NH2], the Ki is 0.1 nM. As to `COC(=O)[C@H](C)NC(=O)C[C@H](O)[C@H](Cc1ccccc1)NC(=O)[C@@H](NC(=O)[C@@H](NC(=O)OC(C)(C)C)C(C)C)C(C)C` [KB74, tert-butyl-oxycarbonyl-valine-valine-phenylstatine-alanine-OMe], the Ki is 14.6 nM.
